Data as given in PMC9034162, “Development of pyrazoline-based derivatives as aminopeptidase N inhibitors to overcome cancer invasion and metastasis” (RSC Advances, 2021).

Tests used:
porcine APN = biological target: T1, porcine APN (Sus scrofa, UniProt P15145); assay: Enzymatic inhibition assay against APN in vitro; format: biochemical; conditions: for IC50: soluble APN from porcine kidney microsomes, L-Leu-p-nitroanilide substrate, pH 7.2, 37 °C 30 min, mean ± SD, triplicate
T1 construct: soluble APN from porcine kidney microsomes (Biocol) was used as enzyme; purchased Biocol; host or cells: porcine kidney microsomes (tissue-derived)
T1 sequence (P15145 1-963): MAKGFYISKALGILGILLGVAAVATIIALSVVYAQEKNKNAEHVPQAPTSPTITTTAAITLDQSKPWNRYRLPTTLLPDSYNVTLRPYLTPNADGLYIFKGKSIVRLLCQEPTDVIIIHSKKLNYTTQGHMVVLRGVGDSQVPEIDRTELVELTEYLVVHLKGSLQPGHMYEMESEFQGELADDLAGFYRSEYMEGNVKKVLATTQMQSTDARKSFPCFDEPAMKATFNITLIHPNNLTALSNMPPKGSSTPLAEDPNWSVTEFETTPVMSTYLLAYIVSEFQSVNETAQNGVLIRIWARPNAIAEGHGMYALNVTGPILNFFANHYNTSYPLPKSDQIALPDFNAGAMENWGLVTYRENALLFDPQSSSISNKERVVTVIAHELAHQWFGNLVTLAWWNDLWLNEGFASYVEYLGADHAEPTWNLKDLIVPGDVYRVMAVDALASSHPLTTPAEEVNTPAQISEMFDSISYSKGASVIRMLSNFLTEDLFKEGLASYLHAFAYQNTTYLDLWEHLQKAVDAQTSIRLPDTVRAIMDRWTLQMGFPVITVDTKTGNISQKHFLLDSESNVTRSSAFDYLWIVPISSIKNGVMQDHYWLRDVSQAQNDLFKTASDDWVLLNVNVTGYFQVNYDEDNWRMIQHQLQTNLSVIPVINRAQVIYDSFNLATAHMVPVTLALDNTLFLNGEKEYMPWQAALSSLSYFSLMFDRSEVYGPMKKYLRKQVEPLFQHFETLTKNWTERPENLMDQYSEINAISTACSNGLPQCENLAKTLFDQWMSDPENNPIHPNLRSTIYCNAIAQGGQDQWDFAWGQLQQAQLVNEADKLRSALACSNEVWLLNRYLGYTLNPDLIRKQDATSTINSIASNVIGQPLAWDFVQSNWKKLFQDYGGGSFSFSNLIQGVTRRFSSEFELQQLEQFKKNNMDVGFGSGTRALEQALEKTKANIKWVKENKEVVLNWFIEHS
Method: In the enzymatic inhibition assay against APN in vitro, L-Leu-p-nitroanilide was used as substrate and soluble APN from porcine kidney microsomes (Biocol) was used as enzyme. 50 mM PBS with pH 7.2 was used as buffer solution. Briefly, inhibitors (40 μL), PBS (145 μL), substrate (5 μL, 16 mmol L^−1) and APN solution (10 μL, 0.15 IU mL^−1) were added into 96-well plates. The mixture was incubated at 37 °C for 30 min. The optical density resulting from the hydrolysis product p-nitroanilide was measured at 405 nm with a plate reader (Varioskan, Thermo, USA).

ES-2 = assay: Anti-proliferation assay (MTT); format: cell-based; conditions: Homo sapiens, 48 h, mean ± SD, triplicate, read-out: IC50 anti-proliferative, ES-2
Method: (§1) The anti-proliferative activities of the selected compounds were evaluated using the MTT method. All the tumor cell lines were cultured in RPMI-1640 medium with 10% FBS at 37 °C in 5% CO2 humidified incubator. Firstly, cells (100 μL) were plated in 96-well plates and allowed to grow for 4 h. Then different concentrations of inhibitors (100 μL) were added. After incubation for 48 h, MTT solution (20 μL per well, 5 mg mL^−1) was added and the mixture was incubated for additional 4 h. Subsequently, the medium were poured off and DMSO (200 μL) was added to dissolve the formed formazan. After shaking for 15 min, the optical density values were measured using a plate reader at 570 nm (Varioskan, Thermo, USA).

HepG2 = assay: Anti-proliferation assay (MTT); format: cell-based; conditions: Homo sapiens, 48 h, mean ± SD, triplicate, read-out: IC50 anti-proliferative, HepG2
Method: as §1

K562 = assay: Anti-proliferation assay (MTT); format: cell-based; conditions: Homo sapiens, 48 h, mean ± SD, triplicate, read-out: IC50 anti-proliferative, K562
Method: as §1

PC-3 = assay: Anti-proliferation assay (MTT); format: cell-based; conditions: Homo sapiens, 48 h, mean ± SD, triplicate, read-out: IC50 anti-proliferative, PC-3
Method: as §1

PLC/PRF/5 = assay: Anti-proliferation assay (MTT); format: cell-based; conditions: Homo sapiens, 48 h, mean ± SD, triplicate, read-out: IC50 anti-proliferative, PLC/PRF/5
Method: as §1

U937 = assay: Anti-proliferation assay (MTT); format: cell-based; conditions: Homo sapiens, U-937, 48 h, mean ± SD, triplicate, read-out: IC50 anti-proliferative, U937
Method: as §1

[1] = Body weight monitoring in H22 pulmonary metastasis model; format: in vivo; conditions: 60 mg kg^−1 d^−1 intraperitoneally for 12 days, Kunming mice, weights every two days
Method: (§2) All animal procedures were performed in accordance with the Guidelines for Care and Use of Laboratory Animals of Shandong University and approved by the Animal Ethical and Welfare Committee (AEWC, China). The mice hepatoma H22 cell line was our laboratory-owned and 6 week old male Kunming mice were purchased from Center for New Drugs Evaluation of Shandong University, China. Firstly, H22 cells suspension (0.1 mL, 7.5 × 10^7 mL^−1) was injected via tail vein to establish a mice H22 pulmonary metastasis model. Subsequently, the mice were randomly divided into treatment and control groups. […] The body weights were monitored every two days. Finally, the mice were sacrificed and the lungs were removed and fixed in Bouin's solution. After 24 h, the metastasis nodes on the surface of pulmonary lobes were counted.

ES-2 cells invasion = assay: In vitro anti-invasion assay (matrigel transwell); format: cell-based
Method: The carbonate membrane coated with matrigel in the upper chamber of transwell insert (BD BioCoat™ Matrigel™ Invasion Chambers) was rehydrated with RPMI-1640 culture medium (500 μL) containing 1% FBS for 2 h. After removing the medium, the upper and lower chambers were added the RPMI-1640 culture medium (100 μL) with 1% FBS containing the tested compounds and the RPMI-1640 culture medium (750 μL) with 10% FBS, respectively. Then, ES-2 cells suspending in the RPMI-1640 culture medium containing 1% FBS (400 μL, 2.5 × 10^5 cells per mL) were added into the upper chambers. The system was placed at 37 °C in 5% CO2 for 8 h. The ES-2 cells could invade the matrigel and migrate from the upper surface of the carbonate membrane into the lower surface of that. ES-2 cells on the upper surface of the carbonate membrane were erased by cotton swabs. Then, ES-2 cells on the lower surface were fixed with methanol, stained with 0.1% crystal violet, of which the photographs were taken under an inverted microscope. The average numbers of ES-2 cells in five random fields (100×) per well were counted. The inhibition rate of ES-2 cells invasion was calculated as follows: (A − B)/A × 100%, A means the number of ES-2 cells in the control group, and B means the number of ES-2 cells in the treated group. The experiments were repeated three times.

mice H22 hepatoma cells = assay: In vivo anti-metastatic assay, mice H22 hepatoma cell pulmonary metastasis model; conditions: 60 mg kg^−1 d^−1 intraperitoneally for 12 days, Kunming mice, H22 cells via tail vein
Method: as §2

| SMILES | IC50 (porcine APN) [nM] | melting point [°C] | further results |
| --- | --- | --- | --- |
| NC(=O)N1N=C(c2cccc(Br)c2)CC1c1ccccc1OCC(=O)NO (stereo not shown) [2b] | 260 ± 50 | 164.4 to 166.4 | – |
| NC(=O)N1N=C(c2ccc(Br)cc2)CC1c1ccccc1OCC(=O)NO (stereo not shown) [2c] | 2100 ± 200 | 190.2 to 192.2 | – |
| COc1ccccc1C1=NN(C(N)=O)C(c2ccccc2OCC(=O)NO)C1 (stereo not shown) [2d] | 270 ± 10 | 198.4 to 200.2 | – |
| COc1cccc(C2=NN(C(N)=O)C(c3ccccc3OCC(=O)NO)C2)c1 (stereo not shown) [2e] | 320 ± 30 | 208.5 to 210.3 | – |
| COc1ccc(C2=NN(C(N)=O)C(c3ccccc3OCC(=O)NO)C2)cc1 (stereo not shown) [2f] | 12500 ± 800 | 168.4 to 170.2 | – |
| Cc1ccccc1C1=NN(C(N)=O)C(c2ccccc2OCC(=O)NO)C1 (stereo not shown) [2g] | 110 ± 10 | 144.5 to 146.2 | – |
| NC(=O)N1N=C(c2ccccc2F)CC1c1ccccc1OCC(=O)NO (stereo not shown) [2h] | 150 ± 10 | 124.4 to 126.1 | – |
| NC(=O)N1N=C(c2c(F)cccc2F)CC1c1ccccc1OCC(=O)NO (stereo not shown) [2j] | 120 ± 10 | 186.2 to 188.2 | – |
| NC(=O)N1N=C(c2ccc(Cl)cc2Cl)CC1c1ccccc1OCC(=O)NO (stereo not shown) [2l] | 420 ± 30 | 196.3 to 198.2 | – |
| NC(=O)N1N=C(c2cccc3ccccc23)CC1c1ccccc1OCC(=O)NO (stereo not shown) [2m] | 210 ± 40 | 204.2 to 206.2 | fold more potent against APN than 2n (porcine APN; IC50 ratio vs 2n): over 10 fold |
| NC(=O)N1N=C(c2ccc3ccccc3c2)CC1c1ccccc1OCC(=O)NO (stereo not shown) [2n] | 2500 ± 100 | 166.2 to 168.2 | – |
| CC(C)C[C@H](NC(=O)[C@@H](O)[C@H](N)Cc1ccccc1)C(=O)O [Bestatin, reference compound] | – | – | IC50 (ES-2): > 500000 nM; IC50 (HepG2): > 500000 nM; IC50 (K562): > 500000 nM; IC50 (PC-3): > 500000 nM; IC50 (PLC/PRF/5): > 500000 nM; IC50 (U937): > 500000 nM; body weight loss [1]: no significant body weight loss |

Second part, led by results:

| IC50 (porcine APN) [nM] | melting point [°C] | SMILES | further results |
| --- | --- | --- | --- |
| 150 ± 20 | – | NC(=O)N1N=C(c2ccccc2)CC1c1ccccc1OCC(=O)NO (stereo not shown) [compound 1, reference compound] | – |
| 150 ± 30 | 168.4 to 170.2 | NC(=O)N1N=C(c2ccccc2Br)CC1c1ccccc1OCC(=O)NO (stereo not shown) [compound 2a, 3-(2-Bromophenyl)-5-(2-(2-(hydroxyamino)-2-oxoethoxy)phenyl)-4,5-dihydro-1H-pyrazole-1-carboxamide] | – |
| 100 ± 10 | 172.2 to 174.1 | NC(=O)N1N=C(c2ccccc2Cl)CC1c1ccccc1OCC(=O)NO (stereo not shown) [compound 2i] | – |
| 64 ± 10 | 200.2 to 202.2 | NC(=O)N1N=C(c2c(Cl)cccc2Cl)CC1c1ccccc1OCC(=O)NO (stereo not shown) [compound 2k] | fold more potent against APN than bestatin (porcine APN; IC50 ratio vs bestatin): over 140 fold; fold more potent against APN than compound 1 (porcine APN; IC50 ratio vs compound 1): > 2 fold; IC50 (ES-2): 141000 ± 3800 nM; IC50 (HepG2): 101000 ± 4900 nM; IC50 (K562): 15600 ± 2200 nM; IC50 (PC-3): 56100 ± 3100 nM; IC50 (PLC/PRF/5): 106000 ± 4700 nM; IC50 (U937): 49200 ± 3800 nM; anti-invasion activity at 10 μM compared with 100 μM of bestatin (ES-2 cells invasion; ES-2 cells, 10 μM of 2k vs 100 μM bestatin): comparable, if not better; anti-invasion effect at 100 μM compared with bestatin (ES-2 cells invasion; ES-2 cells, both at 100 μM, P < 0.05): significantly better than that of bestatin; inhibition of ES-2 cells invasion (ES-2 cells invasion; transwell with matrigel, 8 h, several concentrations): inhibit the ES-2 cells invasion in a concentration dependent manner; in vivo anti-metastasis effect (mice H22 hepatoma cells): effectively prevent the pulmonary metastasis; body weight loss [1]: no significant body weight loss |
| 30200 ± 1900 | 156.6 to 158.2 | COc1ccccc1C1=NN(C(N)=O)C(c2ccccc2OCC(=O)NN)C1 (stereo not shown) [compound 2o, 5-(2-(2-Hydrazinyl-2-oxoethoxy)phenyl)-3-(2-methoxyphenyl)-4,5-dihydro-1H-pyrazole-1-carboxamide] | – |
